Columns and labels:
[1] = test system: HepG2 hepatoma cells; assay: Cell proliferation assay, HepG2 (CellTiter-Glo, 7 days); assay type: cell-based; details: HepG2, 7 days, CellTiter-Glo 2.0
Description: (§1) HepG2 hepatoma cells (ATCC, HB-8065) were maintained in DMEM with high glucose (Lonza, 12-914F) supplemented with 10% fetal bovine serum (FBS; Biowest, S181B-500) and 2 mM L-glutamine (Biowest, X0551-100) at 37° C. and 5% CO2. A549 lung carcinoma cells (ATCC, CCL-185) were maintained in F-12K medium (ThermoFisher 21127030) supplemented with 10% FBS at 37° C. and 5% CO2. Exponentially growing HepG2 or A549 were plated in white, clear-bottom 96-well plates (Corning, 3903) at a cell density of 2000 (HepG2) or 350 (A549) cells per well in 199 μL of HepG2 medium. Next, 1 μL of a 5-fold 9-point dilution series of test compound in DMSO was added to the different wells. Cells were incubated at 37° C. 5% CO2 for 7 days. Cell viability was assessed on day 7 with the CellTiter-Glo 2.0 Cell Viability assay kit (Promega, G9243) to quantify the intracellular amounts of ATP: first, 100 μL of cell culture medium was removed from each well, next 100 μL of CellTiter-Glo® 2.0 Reagent was added and plates were shaken for 2 minutes on an orbital shaker. After 10 minutes stabilization at room temperature, read-out was performed on a ThermoFisher VarioSkan Lux plate reader. Counts were normalized to DMSO control (0% inhibition) and the cytotoxic control (100% inhibition) and EC50 values were determined in GraphPad Prism 8 using the [Agonist] vs. response—Variable slope (four parameters) function.
(§2) As shown by the data of Table 2, compounds of Formula (I) have activity in this assay. A value of ‘A’ in the table below indicates an EC50 of <20 nM, a value of ‘B’ indicates an EC50≥20 nM to <100 nM, a value of ‘C’ indicates an EC50 value of EC50≥100 nM to <1000 nM and a value of ‘D’ indicates an EC50≥1000 nM

[2] = test system: A549 lung carcinoma cells; assay: Cell proliferation assay, A549 (CellTiter-Glo, 7 days); assay type: cell-based; details: A549, 7 days, CellTiter-Glo 2.0
Description: as §1, §2

[3] = target: PRMT5/MEP50 (Homo sapiens (Human), UniProt O14744); assay: PRMT5/MEP50 enzyme inhibition assay, Assay 2 (384-well, MALDI mass spectrometry, histone H4 1-21 peptide); assay type: biochemical; details: 1 μM SAM, 0.1 μM histone H4 1-21 peptide, 18-hour incubation at rt
Sequence of PRMT5/MEP50 (O14744 whole entry): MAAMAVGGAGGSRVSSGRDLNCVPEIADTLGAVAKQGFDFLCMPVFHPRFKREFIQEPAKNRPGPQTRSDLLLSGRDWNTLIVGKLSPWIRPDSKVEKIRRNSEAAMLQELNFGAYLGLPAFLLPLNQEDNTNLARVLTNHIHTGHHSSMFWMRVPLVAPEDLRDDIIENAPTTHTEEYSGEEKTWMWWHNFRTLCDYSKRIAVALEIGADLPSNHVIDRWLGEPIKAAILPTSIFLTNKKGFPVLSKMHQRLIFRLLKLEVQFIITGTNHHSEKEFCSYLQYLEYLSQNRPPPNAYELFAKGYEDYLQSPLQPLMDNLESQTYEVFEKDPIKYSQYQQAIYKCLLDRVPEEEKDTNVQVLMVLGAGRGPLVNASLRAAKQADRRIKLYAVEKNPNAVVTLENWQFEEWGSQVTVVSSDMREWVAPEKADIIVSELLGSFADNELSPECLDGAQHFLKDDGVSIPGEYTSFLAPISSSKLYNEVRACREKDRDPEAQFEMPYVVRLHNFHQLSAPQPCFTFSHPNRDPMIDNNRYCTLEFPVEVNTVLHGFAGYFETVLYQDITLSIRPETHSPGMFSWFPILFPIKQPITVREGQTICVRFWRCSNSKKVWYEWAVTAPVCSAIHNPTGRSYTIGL
Sequence of PRMT5/MEP50 (Q9BQA1 whole entry partner): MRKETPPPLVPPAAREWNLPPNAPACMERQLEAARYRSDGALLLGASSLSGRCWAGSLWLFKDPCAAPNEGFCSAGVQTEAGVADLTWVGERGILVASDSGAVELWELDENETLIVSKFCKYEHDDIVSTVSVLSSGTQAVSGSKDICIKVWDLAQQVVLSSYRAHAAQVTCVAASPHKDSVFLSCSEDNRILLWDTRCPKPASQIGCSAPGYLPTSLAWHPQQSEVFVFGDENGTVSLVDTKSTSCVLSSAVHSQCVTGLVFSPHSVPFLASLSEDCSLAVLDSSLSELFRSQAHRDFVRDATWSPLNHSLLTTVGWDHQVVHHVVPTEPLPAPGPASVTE
Description: Compounds were tested for inhibition of methyltransferase activity in 384-well plate assay format using mass spectrometry technology. In this enzyme inhibition assay, compounds were tested in a 11-dose IC50 mode with 3-serial dilution, in duplicate, starting at 1, 10, or 100 μM. Reactions were carried out at 1 μM SAM and 0.1 μM histone H4 1-21 peptide as substrates for methyl transfer. Following an 18-hour incubation at rt, the reaction was stopped with 0.5% formic acid. Products of the reaction were captured while unreacted substrates were washed away, prior to MALDI mass spectrometry detection and analysis. Percent enzyme activity was calculated based on no inhibitor DMSO control as 100% activity. EC50 values were determined in GraphPad Prism 8 using the [inhibitor] vs. response—Variable slope (four parameters) function.
Compounds of Formula (I) show activity in this assay. A value of ‘A’ in the table below indicates an IC50 of <1 nM, a value of ‘B’ indicates an IC50≥1 nM to ≤100 nM, and a value of ‘C’ indicates an IC50 value of >100 nM.

Structure (SMILES)	EC50 ([1]; Homo sapiens, 168 h) [nM]	EC50 ([2]; Homo sapiens, A549, 168 h) [nM]	IC50 [3] [nM]	EC50 [1] [nM]	EC50 [2] [nM]
Nc1nc2cc(OC[C@@H]3[C@@H](O)[C@@H](O)C4(n5ccc6c(N)ncnc65)C[C@@H]34)ccc2cc1Br (mixture of isomers) [Compound 17, rac-(2S,3R,4R,5S)-4-[(2-amino-3-bromo-7-quinolyl)oxymethyl]-1-(4-aminopyrrolo[2,3-d]pyrimidin-7-yl)bicyclo[3.1.0]hexane-2,3-diol]	≥ 1000	≥ 1000	> 100	–	–
Nc1nc2cc(OC[C@@]34C[C@@H]3[C@@H](n3ccc5c(N)ncnc53)[C@H](O)[C@@H]4O)ccc2cc1Br [Compound 15, (1R,2R,3S,4R,5S)-1-[(2-amino-3-bromo-7-quinolyl)oxymethyl]-4-(4-aminopyrrolo[2,3-d]pyrimidin-7-yl)bicyclo[3.1.0]hexane-2,3-diol]	100 to 1000	100 to 1000	< 1	–	–
Cc1cnc2cc(OC[C@@]34C[C@@H]3[C@@H](n3ccc5c(N)ncnc53)[C@H](O)[C@@H]4O)ccn12 [Compound 16]	–	–	< 1	≥ 1000	≥ 1000
Nc1nc2cc(CC[C@@]34C[C@@H]3[C@@H](n3ccc5c(N)ncnc53)[C@H](O)[C@@H]4O)ccc2cc1Cl [Compound 19, (1R,2R,3S,4R,5S)-1-[2-(2-amino-3-chloro-7-quinolyl)ethyl]-4-(4-aminopyrrolo[2,3-d]pyrimidin-7-yl)bicyclo[3.1.0]hexane-2,3-diol]	< 20	< 20	< 1	–	–
CCCCCOC(=O)Nc1ccc2ccc(CC[C@@]3(C)C[C@@H](n4ccc5c(N)ncnc54)[C@H](O)[C@@H]3O)cc2n1 [Compound 20, pentyl N-[7-[2-[(1S,2R,3S,4R)-4-(4-aminopyrrolo[2,3-d]pyrimidin-7-yl)-2,3-dihydroxy-1-methyl-cyclopentyl]ethyl]-2-quinolyl]carbamate]	< 20	20 to 100	1 to 100	–	–
CCCCCOC(=O)Nc1ccc2cc(CC[C@@]3(C)C[C@@H](n4ccc5c(N)ncnc54)[C@H](O)[C@@H]3O)ccc2n1 [Compound 20-A]	100 to 1000	100 to 1000	> 100	–	–
Nc1ccc2ccc(CC[C@@]34CC3[C@@H](n3ccc5c(N)ncnc53)[C@H](O)[C@@H]4O)nc2n1 (stereo partly drawn) [Compound 22, (1R,2R,3S,4R)-1-[2-(7-amino-1,8-naphthyridin-2-yl)ethyl]-4-(4-aminopyrrolo[2,3-d]pyrimidin-7-yl)bicyclo[3.1.0]hexane-2,3-diol]	100 to 1000	100 to 1000	< 1	–	–
C[C@]1(CCc2ccc3ccc(N)nc3n2)C[C@@H](n2ccc3c(N)ncnc32)[C@H](O)[C@@H]1O [Compound 24]	–	–	< 1	20 to 100	20 to 100
CC(C)C(=O)O[C@H]1[C@H](n2ccc3c(N)ncnc32)[C@H]2C[C@@]2(CCc2ccc3nc(N)ccc3c2)[C@H]1OC(=O)C(C)C [Compound 25-A, (1R,2R,3S,4R,5S)-4-(4-amino-7H-pyrrolo[2,3-d]pyrimidin-7-yl)-1-(2-(2-aminoquinolin-6-yl)ethyl)bicyclo[3.1.0]hexane-2,3-diyl bis(2-methylpropanoate)]	≥ 1000	≥ 1000	> 100	–	–
CC(C)C(=O)O[C@H]1[C@H](n2ccc3c(N)ncnc32)C[C@](C)(CCc2ccc3ccc(N)nc3c2)[C@H]1OC(=O)C(C)C [Compound 26, (1S,2R,3S,5R)-5-(4-amino-7H-pyrrolo[2,3-d]pyrimidin-7-yl)-3-(2-(2-aminoquinolin-7-yl)ethyl)-3-methylcyclopentane-1,2-diyl bis(2-methylpropanoate)]	20 to 100	100 to 1000	> 100	–	–
CC(C)C(=O)O[C@H]1[C@H](n2ccc3c(N)ncnc32)C[C@](C)(CCc2ccc3nc(N)ccc3c2)[C@H]1OC(=O)C(C)C [Compound 26-A]	–	–	> 100	≥ 1000	≥ 1000
C[C@]1(CCc2ccc3cc(Cl)c(N)nc3c2)C[C@@H](n2ccc3c(N)ncnc32)[C@H](O)[C@]1(C)O [Compound 28]	–	–	< 1	20 to 100	100 to 1000
Cc1ncnc2c1ccn2[C@@H]1C[C@](C)(CCc2cc(F)c3cc(Cl)c(N)nc3c2)[C@@H](O)[C@H]1O [Compound 32, (1S,2R,3S,5R)-3-(2-(2-amino-3-chloro-5-fluoroquinolin-7-yl)ethyl)-3-methyl-5-(4-methyl-7H-pyrrolo[2,3-d]pyrimidin-7-yl)cyclopentane-1,2-diol]	< 20	< 20	–	–	–
CCCCCOC(=O)Nc1nc2cc(CC[C@@]3(C)C[C@@H](n4ccc5c(N)ncnc54)[C@H](O)[C@@H]3O)ccc2cc1Cl [Compound 33, pentyl (7-(2-((1S,2R,3S,4R)-4-(4-amino-7H-pyrrolo[2,3-d]pyrimidin-7-yl)-2,3-dihydroxy-1-methylcyclopentyl)ethyl)-3-chloroquinolin-2-yl)carbamate]	< 20	< 20	–	–	–
C[C@]1(CCc2cc(F)c3cc(Cl)c(N)nc3c2)C[C@@H](c2ccc3c(N)ncnn23)[C@H](O)[C@@H]1O [Compound 57]	–	–	< 1	–	–
COC[C@]1(CCc2ccc3cc(Br)c(N)nc3c2)C[C@@H](n2ccc3c(N)ncnc32)[C@H](O)[C@@H]1O [Compound 58]	–	–	< 1	–	–

Results, then the compound that gave them:

EC50 ([1]; Homo sapiens, 168 h) [nM]	EC50 ([2]; Homo sapiens, A549, 168 h) [nM]	IC50 [3] [nM]	EC50 [1] [nM]	EC50 [2] [nM]	Structure (SMILES)
< 20	< 20	–	–	–	C[C@]1(CCc2ccc3cc(Br)c(N)nc3c2)C[C@@H](n2ccc3c(N)ncnc32)[C@H](O)[C@@H]1O [Compound 1]
–	–	< 1	< 20	< 20	C[C@]1(CCc2ccc3cc(Cl)c(N)nc3c2)C[C@@H](n2ccc3c(N)ncnc32)[C@H](O)[C@@H]1O [Compound 18]
< 20	< 20	< 1	–	–	C[C@]1(CCc2ccc3ccc(N)nc3c2)C[C@@H](n2ccc3c(N)ncc(F)c32)[C@H](O)[C@@H]1O [Compound 21, (1S,2R,3S,5R)-5-(4-amino-7-fluoro-pyrrolo[3,2-c]pyridin-1-yl)-3-[2-(2-amino-7-quinolyl)ethyl]-3-methyl-cyclopentane-1,2-diol]
≥ 1000	≥ 1000	1 to 100	–	–	C[C@]1(CCc2ccc3nc(N)ccc3c2)C[C@@H](n2ccc3c(N)ncc(F)c32)[C@H](O)[C@@H]1O [Compound 21-A]
–	–	< 1	< 20	< 20	C[C@]1(CCc2ccc3cc(C(F)F)c(N)nc3c2)C[C@@H](n2ccc3c(N)ncnc32)[C@H](O)[C@@H]1O [Compound 23]
–	–	< 1	20 to 100	20 to 100	C[C@]1(CCc2ccc3cc(C#N)c(N)nc3c2)C[C@@H](n2ccc3c(N)ncnc32)[C@H](O)[C@@H]1O [Compound 27]
< 20	< 20	–	–	–	C[C@]1(CCc2cc(F)c3cc(Cl)c(N)nc3c2)C[C@@H](n2ccc3c(N)ncc(F)c32)[C@H](O)[C@@H]1O [Compound 34, (1S,2R,3S,5R)-3-[2-(2-amino-3-chloro-5-fluoro-7-quinolyl)ethyl]-5-(4-amino-7-fluoro-pyrrolo[3,2-c]pyridin-1-yl)-3-methyl-cyclopentane-1,2-diol]
< 20	< 20	–	–	–	Nc1ccc2ccc(CC[C@@]3(F)C[C@@H](n4ccc5c(N)ncnc54)[C@H](O)[C@@H]3O)cc2n1 [Compound 35, (1S,2S,3R,5R)-5-(4-amino-7H-pyrrolo[2,3-d]pyrimidin-7-yl)-3-(2-(2-aminoquinolin-7-yl)ethyl)-3-fluorocyclopentane-1,2-diol]
